ChEMBL document CHEMBL5050844 (2019)

Tests used:
Format in all cases: functional, T cell line
[1] = Induction of anti-CD3/CD28 antibodies-stimulated human T cell activation at 1 uM assessed fold increase in CD25 expression measured by ELISA assay
[2] = Induction of anti-CD3 antibodies-stimulated human T cell activation at 8 uM assessed fold increase in IL-2 secretion measured by ELISA assay; further: reference of the scale not given here
[3] = Induction of anti-CD3/CD28 antibodies-stimulated human T cell activation at 1 uM assessed fold increase in IL-2 secretion measured by ELISA assay
[4] = Induction of anti-CD3 antibodies-stimulated human T cell activation at 8 uM assessed fold increase in CD25 expression measured by ELISA assay; further: reference of the scale not given here
[5] = Induction of anti-CD3 antibodies-stimulated human T cell activation at 1 uM assessed fold increase in IL-2 secretion measured by ELISA assay; further: reference of the scale not given here
[6] = Induction of anti-CD3/CD28 antibodies-stimulated human T cell activation at 0.3 uM assessed fold increase in IL-2 secretion measured by ELISA assay
[7] = Induction of anti-CD3/CD28 antibodies-stimulated human T cell activation at 0.3 uM assessed fold increase in CD25 expression measured by ELISA assay
[8] = Induction of anti-CD3/CD28 antibodies-stimulated human T cell activation at 4 uM assessed fold increase in CD25 expression measured by ELISA assay
[9] = Induction of anti-CD3/CD28 antibodies-stimulated human T cell activation at 4 uM assessed fold increase in IL-2 secretion measured by ELISA assay
[10] = Induction of anti-CD3 antibodies-stimulated human T cell activation at 1 uM assessed fold increase in CD25 expression measured by ELISA assay; further: reference of the scale not given here

| SMILES | fold change (FC) [1] | fold change (FC) [2] | fold change (FC) [3] | fold change (FC) [4] | fold change (FC) [5] | fold change (FC) [6] | fold change (FC) [7] | fold change (FC) [8] | fold change (FC) [9] | fold change (FC) [10] | fold change (FC) ([3]; 1 µM) | fold change (FC) ([4]; 8 µM) | fold change (FC) ([5]; 1 µM) | fold change (FC) ([6]; 0.3 µM) | fold change (FC) ([9]; 4 µM) |
| --- | --- | --- | --- | --- | --- | --- | --- | --- | --- | --- | --- | --- | --- | --- | --- |
| Cc1cc(C)nc(C(=O)Nc2cccc([C@H](C)Sc3nncn3C)c2)c1 | 1.01 | <=0.05 | 5 | 0.801 | <=0.05 | 2.51 | 1.01 | 1.01 | >=7.5 | <=0.6 | – | – | – | – | – |
| C[C@H](Sc1nncn1C)c1cccc(NC(=O)c2cc(C(C)(C)O)c(Cl)cn2)c1 | 1.01 | <=0.05 | 1.01 | 0.601 | <=0.05 | 1.01 | 1.01 | 1.01 | 1.01 | <=0.6 | – | – | – | – | – |
| Cc1ccc(C(=O)Nc2cccc(C(C)Cc3nccn3C)c2)nc1C1CC1 (stereo in doubt; 214) | <=1 | 0.051 | – | – | – | – | <=1 | 1.01 | – | <=0.6 | >=7.5 | <=0.6 | 0.051 | >=7.5 | >=7.5 |
| C[C@H](Cc1nncn1C)c1cccc(N2Cc3c(Br)cccc3C2=O)c1 | 1.31 | >=0.201 | 5 | 0.801 | >=0.201 | 2.51 | 1.01 | 1.51 | >=7.5 | 0.801 | – | – | – | – | – |
| C[C@H](Sc1nncn1C)c1cccc(NC(=O)c2cc(C(C)(C)O)cc(C(F)(F)F)n2)c1 | 1.01 | <=0.05 | <=1 | >=1.001 | <=0.05 | <=1 | 1.01 | 1.01 | 1.01 | 0.601 | – | – | – | – | – |
| C[C@H](Sc1nncn1C)c1cccc(NC(=O)c2cc(C(F)(F)F)ccn2)c1 | 1.01 | 0.101 | 1.01 | >=1.001 | <=0.05 | <=1 | 1.01 | 1.01 | 1.01 | 0.601 | – | – | – | – | – |
| C[C@H](Sc1nncn1C)c1cccc(NC(=O)c2cncc(C(F)(F)F)n2)c1 | 1.01 | <=0.05 | 1.01 | 0.601 | <=0.05 | <=1 | <=1 | 1.01 | 1.01 | <=0.6 | – | – | – | – | – |
| C[C@H](Sc1nncn1C)c1cccc(N2Cc3c(cccc3C(F)(F)F)C2=O)c1 | 1.01 | <=0.05 | <=1 | 0.801 | <=0.05 | <=1 | <=1 | 1.01 | 1.01 | 0.601 | – | – | – | – | – |
| Cc1nc2cc([C@H](C)Sc3nncn3C)cc(NC(=O)c3cccc(C(F)(F)F)n3)c2o1 | 1.51 | >=0.201 | 5 | >=1.001 | <=0.05 | 2.51 | 1.31 | >=1.76 | >=7.5 | 0.601 | – | – | – | – | – |
| C[C@H](Cc1nncn1C)c1cccc(NC(=O)c2cc(S(C)(=O)=O)cc(C3CC3)n2)c1 | 1.01 | >=0.201 | 1.01 | >=1.001 | 0.101 | 1.01 | 1.01 | <=1 | 1.01 | 0.801 | – | – | – | – | – |
| CC1OCC1Oc1cc([C@H](C)Cc2nncn2C)cc(N2Cc3c(cccc3C(F)(F)F)C2=O)n1 (stereo not given in full) | 1.01 | 0.101 | 1.01 | 0.601 | 0.051 | 1.01 | 1.01 | 1.01 | 1.01 | 0.601 | – | – | – | – | – |
| C[C@H](Cc1nncn1C)c1cc(NCCO)nc(N2Cc3c(cccc3C(F)(F)F)C2=O)c1 | 1.01 | 0.151 | 1.01 | >=1.001 | 0.051 | 1.01 | 1.01 | 1.01 | 2.51 | 0.601 | – | – | – | – | – |
| C[C@@H](c1cccc(N2Cc3c(cccc3C(F)(F)F)C2=O)c1)C(F)(F)c1nncn1C | 1.01 | 0.101 | 1.01 | 0.801 | <=0.05 | 1.01 | 1.01 | 1.01 | 2.51 | 0.601 | – | – | – | – | – |
